According to patent US6653442B1, “Protegrins” (priority 1993, dated 2003):
Ends that are not written are not given here.

What was measured:
[1] = system: Candida albicans (Candid); experiment: Minimal inhibitory concentration, Candida; format: cell-based
Experimental: (§1) The minimal inhibitory concentrations (MICs) of a variety of protegrins were determined against the following organisms: methicillin resistant Staphylococcus aureus (MRSA), Pseudomonas aeruginosa (Psa), vancomycin resistant Enterococcus fecium (VREF), Candida albicans (Candid) and Escherichia coli (E. Co), and are shown in Table 9.

Escherichia coli (E. Co) = experiment: Minimal inhibitory concentration, E. coli; format: cell-based
Experimental: as §1

[2] = system: lipid polysaccharide (LPS) of E. coli strain 0.55B5; experiment: Limulus amebocyte lysate (LAL) test for endotoxin binding; format: biochemical; details: LPS 0.05 endotoxin unit/ml
[3] = system: Pseudomonas aeruginosa (Psa); experiment: Minimal inhibitory concentration, Psa; format: cell-based
Experimental: as §1

[4] = system: methicillin resistant Staphylococcus aureus (MRSA); experiment: Minimal inhibitory concentration, MRSA; format: cell-based
Experimental: as §1

C. albicans, strain 820 = format: cell-based, Candida albicans; details: 90% fetal calf serum
Experimental: The units of activity in the radial diffusion assay were measured as described; 10 units correspond to a 1 mm diameter clear zone around the sample well.
The radial diffusion assay in agarose gels described in Example 1 was also used to test the activity of the purified protegrins.
Similarly, using C. albicans as a target organism, underlayers were prepared with 10 mM sodium phosphate with and without 10% normal human serum.

For “R-G-G-G-L-C-Y-C-R-R-R-F-C-V-C-V-G-R-OH (RGGGLCYCRRRFCVCVGR-OH; cysteine pairing not given here) [IB-249]”, the “minimal inhibitory concentration (MIC) Candid” value [1] was 3.29 and the “minimal inhibitory concentration (MIC) E. Co” value (Escherichia coli (E. Co)) was 0.4.

In the case of “HNP-4: native human defensin (VCSCRLVFCRRTELRVGNCLIGGVSFTYCCTRV; ends and bridges not checked; cysteine pairing not given here; UniProt P12838 64-96, looked up) [reference compound]”, the “gel formation in LAL test” value ([2]; 2.5 μg peptide in 0.2 ml) is reported as “trace”, the “gel formation in LAL test” value ([2]; 5 μg peptide in 0.2 ml) is reported as “trace” and the “gel formation in LAL test” value ([2]; 10 μg peptide in 0.2 ml) is reported as “no gel”.

With “HNP-3: native human defensin [reference compound]” the “gel formation in LAL test” value ([2]; 10 μg peptide in 0.2 ml) was “no gel”.

“R-G-G-G-L-C-Y-C-R-R-G-F-C-V-C-F-G-R (RGGGLCYCRRGFCVCFGR-NH2; cysteine pairing not given here) [IB-223]” was tested, and the “minimal inhibitory concentration (MIC) Candid” value [1] was 1.62, the “minimal inhibitory concentration (MIC) Psa” value [3] was 0.14 and the “minimal inhibitory concentration (MIC) MRSA” value [4] was 1.93.

With “R-G-G-R-V-C-Y-C-R-G-R-F-C-V-C-V-G-R (RGGRVCYCRGRFCVCVGR) [IB-398]” the “minimal inhibitory concentration (MIC) Psa” value [3] was 1 and the “minimal inhibitory concentration (MIC) MRSA” value [4] was 8.

With “R-G-G-R-V-C-Y-C-R-G-R-F-C-V-C-V-OH (RGGRVCYCRGRFCVCV-OH; cysteine pairing not given here) [IB-401]” the “minimal inhibitory concentration (MIC) Psa” value [3] was 1 and the “minimal inhibitory concentration (MIC) MRSA” value [4] was 64.

In the case of “HNP-2: native human defensin used as control (CYCRIPACIAGERRYGTCIYQGRLWAFCC; ends and bridges not checked; cysteine pairing not given here; UniProt P59665 66-94, looked up) [reference compound]”, the “activity against Candida albicans in fetal calf serum (FIG. 5c)” value (C. albicans, strain 820) is reported as “lose their ability to inactivate C. albicans”, the “gel formation in LAL test” value ([2]; 2.5 μg peptide in 0.2 ml) is reported as “trace” and the “gel formation in LAL test” value ([2]; 5 μg peptide in 0.2 ml) is reported as “trace”. For the same substance, the “gel formation in LAL test” value ([2]; 10 μg peptide in 0.2 ml) was “trace”.

“R-G-G-R-V-C-Y-C-R-G-R-F-C-V-C-V (RGGRVCYCRGRFCVCV) [IB-400]” was tested, and the “minimal inhibitory concentration (MIC) Psa” value [3] was 2 and the “minimal inhibitory concentration (MIC) MRSA” value [4] was 8.

For “R-G-G-G-L-C-Y-C-F-P-K-F-C-V-C-V-G-R (RGGGLCYCFPKFCVCVGR-NH2; cysteine pairing not given here) [IB-218]”, the “minimal inhibitory concentration (MIC) Candid” value [1] was 15.96, the “minimal inhibitory concentration (MIC) Psa” value [3] was 1.2 and the “minimal inhibitory concentration (MIC) MRSA” value [4] was 3.48.

With “R-G-G-R-L-C-Y-A-R-R-R-F-A-V-C-V-G-R-OH (RGGRLCYARRRFAVCVGR-OH; cysteine pairing not given here) [IB-288]” the “minimal inhibitory concentration (MIC) Candid” value [1] was 1.6, the “minimal inhibitory concentration (MIC) E. Co” value (Escherichia coli (E. Co)) was 0.4 and the “minimal inhibitory concentration (MIC) Psa” value [3] was 0.05.

With “R-G-G-G-L-C-Y-C-R-P-R-F-C-V-C-V-G-R-OH (RGGGLCYCRPRFCVCVGR-OH; cysteine pairing not given here) [IB-324]” the “minimal inhibitory concentration (MIC) Candid” value [1] was 17.7 and the “minimal inhibitory concentration (MIC) E. Co” value (Escherichia coli (E. Co)) was 3.51.

For “R-G-G-G-L-C-Y-T-R-P-R-F-T-V-C-V-G-R (RGGGLCYTRPRFTVCVGR-NH2; cysteine pairing not given here) [IB-226]”, the “minimal inhibitory concentration (MIC) E. Co” value (Escherichia coli (E. Co)) was 1.53, the “minimal inhibitory concentration (MIC) Psa” value [3] was 0.07 and the “minimal inhibitory concentration (MIC) MRSA” value [4] was 8.7.

In the case of “R-G-G-G-L-C-Y-A-R-K-G-F-A-V-C-V-G-R (RGGGLCYARKGFAVCVGR-NH2; cysteine pairing not given here) [IB-227]”, the “minimal inhibitory concentration (MIC) E. Co” value (Escherichia coli (E. Co)) is reported as 2.65, the “minimal inhibitory concentration (MIC) Psa” value [3] is reported as 0.01 and the “minimal inhibitory concentration (MIC) MRSA” value [4] is reported as greater than 128.

For “R-G-G-R-L-C-Y-A-R-R-R-F-A-V-C-V-G-R (RGGRLCYARRRFAVCVGR) [IB-289]”, the “minimal inhibitory concentration (MIC) Candid” value [1] was 1.6, the “minimal inhibitory concentration (MIC) E. Co” value (Escherichia coli (E. Co)) was 0.4 and the “minimal inhibitory concentration (MIC) Psa” value [3] was 0.05.
